In patent US10076116B2, “N-cycloalkyl-N-(biheterocyclymethylene)-(thio)carboxamide derivatives” (BAYER CROPSCIENCE AKTIENGESELLSCHAFT, priority 2013, dated 2018):

What was measured:
Puccinia recondita = experiment: In vivo preventive test on Puccinia recondita (brown rust on wheat)
Procedure: Example C: In Vivo Preventive Test on Puccinia recondita (Brown Rust on Wheat) […]
The young plants of wheat are treated by spraying the active ingredient prepared as described above. […]
After 24 hours, the plants are contaminated by spraying the leaves with an aqueous suspension of Puccinia recondita spores. The contaminated wheat plants are incubated for 24 hours at 20° C. and at 100% relative humidity and then for 10 days at 20° C. and at 70-80% relative humidity.
The test is evaluated 11 days after the inoculation. 0% means an efficacy which corresponds to that of the control plants while an efficacy of 100% means that no disease is observed.

[1] = log P by HPLC on reversed-phase column (C 18), EEC Directive 79/831 Annex V.A8; type: physicochemical; conditions: HPLC C 18, 40° C., 0.1% aqueous formic acid and acetonitrile, gradient 10% to 90% acetonitrile
Procedure: In table 1, the log P values were determined in accordance with EEC Directive 79/831 Annex V.A8 by HPLC (High Performance Liquid Chromatography) on a reversed-phase column (C 18), using the method described below: Temperature: 40° C.; Mobile phases: 0.1% aqueous formic acid and acetonitrile; linear gradient from 10% acetonitrile to 90% acetonitrile. Calibration was carried out using unbranched alkan-2-ones (comprising 3 to 16 carbon atoms) with known log P values (determination of the log P values by the retention times using linear interpolation between two successive alkanones). lambda-max-values were determined using UV-spectra from 200 nm to 400 nm and the peak values of the chromatographic signals.

Uromyces appendiculatus = experiment: In vivo preventive test on Uromyces appendiculatus (bean rust)
Procedure: Example G: In Vivo Preventive Test on Uromvces Appendiculatus (Bean Rust) Solvent: 5% by volume of Dimethyl sulfoxide • 10% by volume of Acetone Emulsifier: 1 μL of TWEEN® 80 per mg of active ingredient The active ingredients are made soluble and homogenized in a mixture of Dimethyl sulfoxide/Acetone/TWEEN® 80 and then diluted in water to the desired concentration. The young plants of bean are treated by spraying the active ingredient prepared as described above. Control plants are treated only with an aqueous solution of Acetone/Dimethyl sulfoxide/TWEEN® 80. After 24 hours, the plants are contaminated by spraying the leaves with an aqueous suspension of Uromyces appendiculatus spores. The contaminated bean plants are incubated for 24 hours at 20° C. and at 100% relative humidity and then for 10 days at 20° C. and at 70-80% relative humidity. The test is evaluated 11 days after the inoculation. 0% means an efficacy which corresponds to that of the control plants while an efficacy of 100% means that no disease is observed.

Botrytis cinerea = experiment: In vivo preventive test on Botrytis cinerea (grey mould); conditions: gherkin; for protection: dose of 500 and 100 ppm of active ingredient
Procedure: Example B: In Vivo Preventive Test Botrvtis Cinerea (Grey Mould) Solvent: 5% by volume of Dimethyl sulfoxide • 10% by volume of Acetone Emulsifier: 1 μL of TWEEN® 80 per mg of active ingredient The active ingredients are made soluble and homogenized in a mixture of Dimethyl sulfoxide/Acetone/TWEEN® 80 and then diluted in water to the desired concentration. The young plants of gherkin are treated by spraying the active ingredient prepared as described above. Control plants are treated only with an aqueous solution of Acetone/Dimethyl sulfoxide/TWEEN® 80. After 24 hours, the plants are contaminated by spraying the leaves with an aqueous suspension of Botrytis cinerea spores. The contaminated gherkin plants are incubated for 4 to 5 days at 17° C. and at 90% relative humidity. The test is evaluated 4 to 5 days after the inoculation. 0% means an efficacy which corresponds to that of the control plants while an efficacy of 100% means that no disease is observed.

[2] = dose 125 ppm, in very similar conditions, prior-art analogues
[3] = dose 500 ppm, in very similar conditions, prior-art analogues
[4] = in very similar conditions, dose of 500 and 125 ppm, analogues of WO2009/016222 and WO2008/037789
[5] = very similar conditions, formulated in DMF with 2% of alkylarylpolyglycolether
[6] = in very similar conditions, dose of 500 and 100 ppm, analogues of WO2012/059497
[7] = wheat, compounds of this patent
[8] = dose 100 ppm, wheat, compounds of this patent
[9] = dose 500 ppm, wheat, compounds of this patent

## Cc1nn(C)c(F)c1C(=O)N(Cc1cn(-c2ccccc2)c2ccccc12)C1CC1 [13 from WO-2009/016222, N-cyclopropyl-5-fluoro-1,3-dimethyl-N-[(1-phenyl-1H-indol-3-yl)methyl]-1H-pyrazole-4-carboxamide]
Puccinia recondita; [2]
  Efficacy (Table C2): 17%
Puccinia recondita; [3]
  Efficacy (Table C2): 78%
Puccinia recondita; [4]
  protection: good (at least 70%) to no protection

## Cc1nc(C)c(-c2sccc2CN(C(=O)c2c(C(F)F)nn(C)c2F)C2CC2)s1 [I.11]
Puccinia recondita; 500 ppm of active ingredient, wheat plants, evaluated 11 days after inoculation
  efficacy: at least 60%
Puccinia recondita; dose 500 ppm, wheat, compound of this patent
  Efficacy (Table C3): 69%
[1]
  logP: 2.88

## Cc1sc(-c2ccccc2)cc1C(C)N(C(=O)c1c(C(F)F)nn(C)c1F)C1CC1 (stereo not shown) [147 from WO2012/059497, N-cyclopropyl-3-(difluoromethyl)-5-fluoro-1-methyl-N-[1-(2-methyl-5-phenyl-3-thienyl)ethyl]-1H-pyrazole-4-carboxamide]
Puccinia recondita; [5]
  Efficacy at 100 ppm (Table C1): 0%
  Efficacy at 500 ppm (Table C1): 30%
Puccinia recondita; [6]
  protection: good (at least 80%) to no protection

## CCc1nn(C)c(F)c1C(=O)N(Cc1cn(-c2ccccc2)c2ccccc12)C1CC1 [29 from WO-2009/016222, N-cyclopropyl-3-ethyl-5-fluoro-1-methyl-N-[(1-phenyl-1H-indol-3-yl)methyl]-1H-pyrazole-4-carboxamide]
Puccinia recondita; [2]
  Efficacy (Table C2): 22%
Puccinia recondita; [3]
  Efficacy (Table C2): 67%
Puccinia recondita; [4]
  protection: good (at least 70%) to no protection

## Cn1nc(C(F)F)c(C(=O)N(Cc2cc(-c3ccc(Cl)cc3)no2)C2CC2)c1F [153 from WO2012/059497, N-{[3-(4-chlorophenyl)-1,2-oxazol-5-yl]methyl}-N-cyclopropyl-3-(difluoromethyl)-5-fluoro-1-methyl-1H-pyrazole-4-carboxamide]
Puccinia recondita; [5]
  Efficacy at 100 ppm (Table C1): 10%
  Efficacy at 500 ppm (Table C1): 80%
Puccinia recondita; [6]
  protection: good (at least 80%) to no protection

## COc1ccsc1-c1cc(C(F)(F)F)cnc1CN(C(=O)c1c(C(F)F)nn(C)c1F)C1CC1 [I.23]
Puccinia recondita; [7]
  Efficacy at 100 ppm (Table C1): 98%
  Efficacy at 500 ppm (Table C1): 100%
[1]
  logP: 3.89

## Cn1cc(C(=O)N(Cc2ccc(Oc3ccccc3)nc2)C2CC2)c(C(F)F)n1 [36 from WO-2008/037789, N-cyclopropyl-3-(difluoromethyl)-1-methyl-N-[(6-phenoxypyridin-3-yl)methyl]-1H-pyrazole-4-carboxamide]
Puccinia recondita; [2]
  Efficacy (Table C2): 0%
Puccinia recondita; [3]
  Efficacy (Table C2): 0%
Puccinia recondita; [4]
  protection: good (at least 70%) to no protection

## Cc1nn(C)c(F)c1C(=O)N(Cc1ccc(Oc2ccccc2)nc1)C1CC1 [35 from WO-2008/037789, N-cyclopropyl-5-fluoro-1,3-dimethyl-N-[(6-phenoxypyridin-3-yl)methyl]-1H-pyrazole-4-carboxamide]
Puccinia recondita; [2]
  Efficacy (Table C2): 0%
Puccinia recondita; [3]
  Efficacy (Table C2): 0%
Puccinia recondita; [4]
  protection: good (at least 70%) to no protection

## Cc1nn(-c2ccccc2)nc1CN(C(=O)c1c(C(F)F)nn(C)c1F)C1CC1 [131 from WO2012/059497, N-cyclopropyl-3-(difluoromethyl)-5-fluoro-1-methyl-N-[(5-methyl-2-phenyl-2H-1,2,3-triazol-4-yl)methyl]-1H-pyrazole-4-carboxamide]
Puccinia recondita; [5]
  Efficacy at 100 ppm (Table C1): 0%
  Efficacy at 500 ppm (Table C1): 11%
Puccinia recondita; [6]
  protection: good (at least 80%) to no protection

## Cc1ccc(-c2cc(C(F)(F)F)cnc2CN(C(=O)c2c(C(F)F)nn(C)c2F)C2CC2)s1 [I.21]
Puccinia recondita; [7]
  Efficacy at 100 ppm (Table C1): 89%
  Efficacy at 500 ppm (Table C1): 98%
[1]
  logP: 4.35

## Cn1nc(C(F)F)c(C(=O)N(Cc2cc(-c3cc(F)c(F)c(F)c3)no2)C2CC2)c1F [165 from WO2012/059497, N-cyclopropyl-3-(difluoromethyl)-5-fluoro-1-methyl-N-{[3-(3,4,5-trifluorophenyl)-1,2-oxazol-5-yl]methyl}-1H-pyrazole-4-carboxamide]
Puccinia recondita; [5]
  Efficacy at 100 ppm (Table C1): 0%
  Efficacy at 500 ppm (Table C1): 10%
Puccinia recondita; [6]
  protection: good (at least 80%) to no protection

## Cc1nn(C)c(F)c1C(=O)N(Cc1nc(-c2ccc(Cl)cc2)cs1)C1CC1 [12 from WO2008/015189, N-{[4-(4-chlorophenyl)-1,3-thiazol-2-yl]methyl}-N-cyclopropyl-5-fluoro-1,3-dimethyl-1H-pyrazole-4-carboxamide]
Puccinia recondita; [3]
  Efficacy (Table C3): 0%

## Cn1nc(C(F)F)c(C(=O)N(Cc2ncc(C(F)(F)F)cc2-c2ccncc2)C2CC2)c1F [CMP3, N-cyclopropyl-3-(difluoromethyl)-5-fluoro-1-methyl-N-{[5-(trifluoromethyl)-3,4′-bipyridin-2-yl]methyl}-1H-pyrazole-4-carboxamide, reference compound]
Uromyces appendiculatus; dose 100 ppm
  Efficacy (Table G1): 0%
Uromyces appendiculatus; dose 500 ppm
  Efficacy (Table G1): 17%
Botrytis cinerea; dose 100 ppm
  Efficacy (Table B1): 0%
Botrytis cinerea; dose 500 ppm
  Efficacy (Table B1): 0%
Botrytis cinerea
  protection: no protection

## Cn1cc(C(=O)N(Cc2nc(-c3ccc(Cl)cc3)cs2)C2CC2)c(C(F)(F)F)n1 [59 from WO2008/015189, N-{[4-(4-chlorophenyl)-1,3-thiazol-2-yl]methyl}-N-cyclopropyl-1-methyl-3-(trifluoromethyl)-1H-pyrazole-4-carboxamide]
Puccinia recondita; [3]
  Efficacy (Table C3): 0%

## Cn1cc(C(=O)N(Cc2ncc(C(F)(F)F)cc2-c2ccsc2)C2CC2)c(C(F)F)n1 [I.41]
Puccinia recondita; [8]
  Efficacy (Table C2): 79%
Puccinia recondita; [9]
  Efficacy (Table C2): 93%
[1]
  logP: 3.42

## Cc1cscc1-c1cc(C(F)(F)F)cnc1CN(C(=S)c1c(C(F)F)nn(C)c1F)C1CC1 [I.37]
Puccinia recondita; [8]
  Efficacy (Table C2): 86%
Puccinia recondita; [9]
  Efficacy (Table C2): 93%
[1]
  logP: 4.67

## Cc1nc(-c2ccc(Cl)cc2)sc1CN(C(=O)c1c(C)nn(C)c1F)C1CC1 [17 from WO2008/015189, N-{[2-(4-chlorophenyl)-4-methyl-1,3-thiazol-5-yl]methyl}-N-cyclopropyl-5-fluoro-1,3-dimethyl-1H-pyrazole-4-carboxamide]
Puccinia recondita; [3]
  Efficacy (Table C3): 10%

## Cc1nc(-c2ccc(Cl)cc2)sc1CN(C(=O)c1cn(C)nc1C(F)F)C1CC1 [45 from WO2008/015189, N-{[2-(4-chlorophenyl)-4-methyl-1,3-thiazol-5-yl]methyl}-N-cyclopropyl-3-(difluoromethyl)-1-methyl-1H-pyrazole-4-carboxamide]
Puccinia recondita; [3]
  Efficacy (Table C3): 0%

## Cn1cc(C(=O)N(Cc2nc(-c3ccc(Cl)cc3)cs2)C2CC2)c(C(F)(F)F)c1 [28 from WO2008/015189, N-{[4-(4-chlorophenyl)-1,3-thiazol-2-yl]methyl}-N-cyclopropyl-1-methyl-4-(trifluoromethyl)-1H-pyrrole-3-carboxamide]
Puccinia recondita; [3]
  Efficacy (Table C3): 11%

## Cn1nc(C(F)F)c(C(=O)N(Cc2ncc(C(F)(F)F)cc2-c2cccnc2)C2CC2)c1F [CMP2, N-cyclopropyl-3-(difluoromethyl)-5-fluoro-1-methyl-N-{[5-(trifluoromethyl)-3,3′-bipyridin-2-yl]methyl}-1H-pyrazole-4-carboxamide, reference compound]
Uromyces appendiculatus; dose 100 ppm
  Efficacy (Table G1): 0%
Uromyces appendiculatus; dose 500 ppm
  Efficacy (Table G1): 0%
Botrytis cinerea; dose 100 ppm
  Efficacy (Table B1): 0%
Botrytis cinerea; dose 500 ppm
  Efficacy (Table B1): 0%
Botrytis cinerea
  protection: no protection

## Cn1nc(C(=O)N(Cc2nc(-c3ccc(Cl)cc3)cs2)C2CC2)c(C(F)(F)F)n1 [50 from WO2008/015189, N-{[4-(4-chlorophenyl)-1,3-thiazol-2-yl]methyl}-N-cyclopropyl-2-methyl-5-(trifluoromethyl)-2H-1,2,3-triazole-4-carboxamide]
Puccinia recondita; [3]
  Efficacy (Table C3): 0%
